The results in this text go back to patent US20260053171A1, “METHANOGEN INHIBITORS” (AGRIZERONZ LIMITED PARTNERSHIP, priority 2022, published 2026).

The subject of this test is methane production in rumen fluid. The test is described as follows: Rumen in vitro (RIV) assay, methane production from rumen fluid incubations. Format: cell-based, cattle. Conditions: for inhibition at 10 µM / inhibition at 50 µM / inhibition at 2 µM: Bos taurus, read-out: RIV % methane reduction +/− SD. The gist of the method: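 Rumen fluid from two fistulated cattle diluted 12 ml in 48 ml buffer with ryegrass substrate, incubated in sealed bottles at 39° C for 24-48 h in duplicate. Inhibitors added in DMF (stocks 1000-fold above highest assay level); total gas, methane and H2 measured automatically; 30 μM BES positive control, no-inhibitor negative control.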

Take `CN(C)c1ccc(-c2ccc(C3=NN(C(=O)CCC(=O)O)C(c4ccc5nccnc5c4)C3)cc2)cc1` (centres unmarked) [Compound 95, 4-(3-(4′-(Dimethylamino)-[1,1′-biphenyl]-4-yl)-5-(quinoxalin-6-yl)-4,5-dihydro-1H-pyrazol-1-yl)-4-oxobutanoic acid]: for the setting “10 μM”, the inhibition at 10 µM was determined as 68.3 ± 2.1%.

For `O=C(O)CCC(=O)N1N=C(c2ccc(-c3ccc(N4CCCCC4)cc3)cc2)CC1c1ccc2nccnc2c1` (centres unmarked) [Compound 96, 4-Oxo-4-(3-(4′-(piperidin-1-yl)-[1,1′-biphenyl]-4-yl)-5-(quinoxalin-6-yl)-4,5-dihydro-1H-pyrazol-1-yl)butanoic acid], the inhibition at 10 µM (10 μM) turned out to be 8.2 ± 2.5%. Also, the inhibition at 50 µM (50 μM) is 73.3 ± 12.1%.

Take `COc1cccc(-c2cccc(C3=NN(C(=O)CCC(=O)O)C(c4ccc5nccnc5c4)C3)c2)c1` (centres unmarked) [Compound 97, 4-(3-(3′-Methoxy-[1,1′-biphenyl]-3-yl)-5-(quinoxalin-6-yl)-4,5-dihydro-1H-pyrazol-1-yl)-4-oxobutanoic acid]: the inhibition at 10 µM (10 μM) was 5.4 ± 0.2%. Moreover, the inhibition at 50 µM (50 μM) is 76 ± 1.4%.

Consider `O=C(O)CCC(=O)N1N=C(c2cccc(-c3cccc(OC(F)(F)F)c3)c2)CC1c1ccc2nccnc2c1` (centres unmarked) [Compound 98, 4-Oxo-4-(5-(quinoxalin-6-yl)-3-(3′-(trifluoromethoxy)-[1,1′-biphenyl]-3-yl)-4,5-dihydro-1H-pyrazol-1-yl)butanoic acid], for which the inhibition at 10 µM (10 μM) was 15.6 ± 0.6%. Also, for the setting “50 μM”, the inhibition at 50 µM was 91 ± 2.7%.

With `COc1ccc(-c2cccc(C3=NN(C(=O)CCC(=O)O)C(c4ccc5nccnc5c4)C3)c2)cc1` (centres unmarked) [Compound 99, 4-(3-(4′-Methoxy-[1,1′-biphenyl]-3-yl)-5-(quinoxalin-6-yl)-4,5-dihydro-1H-pyrazol-1-yl)-4-oxobutanoic acid], the inhibition at 10 µM (10 μM) was less than 5%. Where the note is “50 μM”, the inhibition at 50 µM is 71.8%.

Turning to `CC(C)Oc1ccc(-c2ccc(C3=NN(C(=O)CCC(=O)O)C(c4ccc5nccnc5c4)C3)cc2)cc1F` (centres unmarked) [Compound 100, 4-(3-(3′-Fluoro-4′-isopropoxy-[1,1′-biphenyl]-4-yl)-5-(quinoxalin-6-yl)-4,5-dihydro-1H-pyrazol-1-yl)-4-oxobutanoic acid], the inhibition at 2 µM (2 μM) was found to be 25 ± 7.8%. In addition, for the setting “10 μM”, the inhibition at 10 µM was determined as 89.2 ± 3%.

Turning to `O=C(O)CCC(=O)N1N=C(c2ccc(-c3ccc(OC(F)(F)F)cc3F)cc2)CC1c1ccc2nccnc2c1` (centres unmarked) [Compound 101, 4-(3-(2′-Fluoro-4′-(trifluoromethoxy)-[1,1′-biphenyl]-4-yl)-5-(quinoxalin-6-yl)-4,5-dihydro-1H-pyrazol-1-yl)-4-oxobutanoic acid], for the setting “10 μM”, the inhibition at 10 µM came out at 65.7 ± 2.9%.

Regarding `O=C(O)CCC(=O)N1N=C(c2ccc(-c3ccc(OC(F)(F)F)c(Cl)c3)cc2)CC1c1ccc2nccnc2c1` (centres unmarked) [Compound 102, 4-(3-(3′-Chloro-4′-(trifluoromethoxy)-[1,1′-biphenyl]-4-yl)-5-(quinoxalin-6-yl)-4,5-dihydro-1H-pyrazol-1-yl)-4-oxobutanoic acid], under “10 μM”, the inhibition at 10 µM came out at 52.8 ± 2.5%.

In the case of `O=C(O)CCC(=O)N1N=C(c2ccc(-c3ccc4c(c3)OCO4)cc2)CC1c1ccc2nccnc2c1` (centres unmarked) [Compound 103, 4-(3-(4-(Benzo[d][1,3]dioxol-5-yl)phenyl)-5-(quinoxalin-6-yl)-4,5-dihydro-1H-pyrazol-1-yl)-4-oxobutanoic acid], the inhibition at 10 µM (10 μM) is 24.8 ± 6.2%.

Turning to `O=C(O)CCC(=O)N1N=C(c2ccc(-c3ccc4c(c3)OC(F)(F)O4)cc2)CC1c1ccc2nccnc2c1` (centres unmarked) [Compound 104, 4-(3-(4-(2,2-Difluorobenzo[d][1,3]dioxol-5-yl)phenyl)-5-(quinoxalin-6-yl)-4,5-dihydro-1H-pyrazol-1-yl)-4-oxobutanoic acid], for the setting “10 μM”, the inhibition at 10 µM came out at 41.9 ± 8.9%.

Consider `O=C(O)CCC(=O)N1N=C(c2ccc(-c3ccc4[nH]ccc4c3)cc2)CC1c1ccc2nccnc2c1` (centres unmarked) [Compound 106, 4-(3-(4-(1H-Indol-5-yl)phenyl)-5-(quinoxalin-6-yl)-4,5-dihydro-1H-pyrazol-1-yl)-4-oxobutanoic acid], for which the inhibition at 10 µM (10 μM) is less than 5%. Further, where the note is “50 μM”, the inhibition at 50 µM was found to be 26 ± 2.5%.

In the case of `CC(C)Oc1ccc(-c2ccc(C3=NN(C(=O)CCC(=O)O)C(c4ccc5nccnc5c4)C3)cc2)cn1` (centres unmarked) [Compound 107, 4-(3-(4-(6-Isopropoxypyridin-3-yl)phenyl)-5-(quinoxalin-6-yl)-4,5-dihydro-1H-pyrazol-1-yl)-4-oxobutanoic acid], the inhibition at 10 µM (10 μM) came to 33.4 ± 2.1%.

With `O=C(O)CCC(=O)N1N=C(c2ccc(-c3ccoc3)cc2)CC1c1ccc2nccnc2c1` (centres unmarked) [Compound 108, 4-(3-(4-(Furan-3-yl)phenyl)-5-(quinoxalin-6-yl)-4,5-dihydro-1H-pyrazol-1-yl)-4-oxobutanoic acid], the inhibition at 10 µM (10 μM) worked out at 6.3 ± 6.1%. Moreover, the inhibition at 50 µM (50 μM) came out at 48.3 ± 2.8%.

As to `O=C(O)CCC(=O)N1N=C(c2ccc(-c3ccccc3)cc2F)CC1c1ccc2nccnc2c1` (centres unmarked) [Compound 109, 4-(3-(3-Fluoro-[1,1′-biphenyl]-4-yl)-5-(quinoxalin-6-yl)-4,5-dihydro-1H-pyrazol-1-yl)-4-oxobutanoic acid], the inhibition at 10 µM (10 μM) turned out to be 40.4 ± 8.1%.

Take `O=C(O)CCC(=O)N1N=C(c2ccc(-c3ccccc3)c(F)c2)CC1c1ccc2nccnc2c1` (centres unmarked) [Compound 110, 4-(3-(2-Fluoro-[1,1′-biphenyl]-4-yl)-5-(quinoxalin-6-yl)-4,5-dihydro-1H-pyrazol-1-yl)-4-oxobutanoic acid]: the inhibition at 10 µM (10 μM) came out at 40.4 ± 7.6%.

Take `O=C(O)CCC(=O)N1N=C(c2ccc(-c3ccccc3)cc2)CC1c1ccc2nonc2c1` (centres unmarked) [Compound 111, 4-(3-([1,1′-Biphenyl]-4-yl)-5-(benzo[c][1,2,5]oxadiazol-5-yl)-4,5-dihydro-1H-pyrazol-1-yl)-4-oxobutanoic acid]: the inhibition at 10 µM (10 μM) was found to be 43.3 ± 9%.

For `O=C(O)CCC(=O)N1N=C(c2ccc(Cl)cc2)CC1c1ccc(F)c(F)c1` (centres unmarked) [Compound 112, 4-(3-(4-Chlorophenyl)-5-(3,4-difluorophenyl)-4,5-dihydro-1H-pyrazol-1-yl)-4-oxobutanoic acid], the inhibition at 50 µM (50 μM) turned out to be 21.7 ± 0.9%.

As to `NC(=O)CCC(=O)N1N=C(c2ccc(Cl)cc2)CC1c1ccc2nccnc2c1` (centres unmarked) [Compound 113, 4-(3-(4-Chlorophenyl)-5-(quinoxalin-6-yl)-4,5-dihydro-1H-pyrazol-1-yl)-4-oxobutanamide], where the note is “50 μM”, the inhibition at 50 µM came to 15.6 ± 0.4%.

As for `O=C(O)c1cccc(N2N=C(c3cccc(-c4ccccc4)c3)CC2c2ccc3nccnc3c2)c1` (centres unmarked) [Compound 114, 3-(3-([1,1′-Biphenyl]-3-yl)-5-(quinoxalin-6-yl)-4,5-dihydro-1H-pyrazol-1-yl)benzoic acid], for the setting “10 μM”, the inhibition at 10 µM came out at 58.3 ± 16.6%.

In the case of `O=C(O)c1ccc(N2N=C(c3ccc(Cl)cc3)CC2c2ccc3nccnc3c2)cc1` (centres unmarked) [Compound 115, 4-(3-(4-Chlorophenyl)-5-(quinoxalin-6-yl)-4,5-dihydro-1H-pyrazol-1-yl)benzoic acid], where the note is “10 μM”, the inhibition at 10 µM was 20.1 ± 1.1%. The inhibition at 50 µM (50 μM) stood at 84 ± 10.6%.

Consider `CS(=O)(=O)NC(=O)CCC(=O)N1N=C(c2ccc(OC(F)(F)F)cc2)CC1c1ccc2nccnc2c1` (centres unmarked) [Compound 116, N-(Methylsulfonyl)-4-oxo-4-(5-(quinoxalin-6-yl)-3-(4-(trifluoromethoxy)phenyl)-4,5-dihydro-1H-pyrazol-1-yl) butanamide], for which the “RIV % methane reduction +/− SD” value is recorded as less than 5% (2 μM), 72.4 ± 10.6% (10 μM) and 93.9 ± 4.7% (50 μM).

Consider `CC(C)Oc1ccc(-c2ccc(C3=NN(C(=O)CCC(=O)NS(C)(=O)=O)C(c4ccc5nccnc5c4)C3)cc2)cc1` (centres unmarked) [Compound 117, 4-(3-(4′-Isopropoxy-[1,1′-biphenyl]-4-yl)-5-(quinoxalin-6-yl)-4,5-dihydro-1H-pyrazol-1-yl)-N-(methylsulfonyl)-4-oxobutanamide], for which the inhibition at 2 µM (2 μM) is 9.1 ± 2.4%. For the same molecule, the inhibition at 10 µM (10 μM) is 72.5 ± 4%.

`CC(C)S(=O)(=O)NC(=O)CCC(=O)N1N=C(c2ccc(OC(F)(F)F)cc2)CC1c1ccc2nccnc2c1` (centres unmarked) [Compound 118, N-(Isopropylsulfonyl)-4-oxo-4-(5-(quinoxalin-6-yl)-3-(4-(trifluoromethoxy)phenyl)-4,5-dihydro-1H-pyrazol-1-yl) butanamide]: under “10 μM”, the inhibition at 10 µM is 29.7 ± 6%.

Turning to `CC(C)S(=O)(=O)NC(=O)CCC(=O)N1N=C(c2cccc(-c3ccccc3)c2)CC1c1ccc2nccnc2c1` (centres unmarked) [Compound 119, 4-(3-([1,1′-Biphenyl]-3-yl)-5-(quinoxalin-6-yl)-4,5-dihydro-1H-pyrazol-1-yl)-N-(isopropylsulfonyl)-4-oxobutanamide], the inhibition at 2 µM (2 μM) was found to be 11.9 ± 2.7%. Further, the inhibition at 10 µM (10 μM) is 81.8 ± 2.7%.

With `CC(C)Oc1ccc(-c2ccc(C3=NN(C(=O)CCC(=O)NS(=O)(=O)C(C)C)C(c4ccc5nccnc5c4)C3)cc2)cc1` (centres unmarked) [Compound 120, 4-(3-(4′-Isopropoxy-[1,1′-biphenyl]-4-yl)-5-(quinoxalin-6-yl)-4,5-dihydro-1H-pyrazol-1-yl)-N-(isopropylsulfonyl)-4-oxobutanamide], the inhibition at 2 µM (2 μM) is 12.6 ± 1.4%. In addition, the inhibition at 10 µM (10 μM) is 70.4 ± 5.5%.

On to `CC(C)(C)S(=O)(=O)NC(=O)CCC(=O)N1N=C(c2ccc(Cl)cc2)CC1c1ccc2nccnc2c1` (centres unmarked) [Compound 121, N-(tert-Butylsulfonyl)-4-(3-(4-chlorophenyl)-5-(quinoxalin-6-yl)-4,5-dihydro-1H-pyrazol-1-yl)-4-oxobutanamide], for which, under “10 μM”, the inhibition at 10 µM was determined as 9.8 ± 2.2%.

For the molecule `O=C(CCC(=O)N1N=C(c2cccc(-c3ccccc3)c2)CC1c1ccc2nccnc2c1)NS(=O)(=O)c1ccccc1` (centres unmarked) [Compound 122, 4-(3-([1,1′-Biphenyl]-3-yl)-5-(quinoxalin-6-yl)-4,5-dihydro-1H-pyrazol-1-yl)-4-oxo-N-(phenylsulfonyl) butanamide], the inhibition at 2 µM (2 μM) stood at 7.4 ± 4.7%. The inhibition at 10 µM (10 μM) amounted to 78.9 ± 2.3%.
